Measurements: patent publication US12371472B2, “Multimeric IL-15 soluble fusion molecules and methods of making and using same” (Altor BioScience, LLC., priority 2010, dated 2025)
pEC50, pKd: −log10 of the molar value. Where two headings read alike, the source gives them in different places.

How the values were obtained:
NK cells and CD8 T-cells = test: Immunostimulatory activity in C57BL/6 mice (NK cells, CD8 T cells, WBC, spleen weight); format: in vivo
Description: Changes in the percentage of peripheral blood mononuclear cells (PBMC) CD8^+ and NKp46^+ cells were assessed flow cytometry as shown in FIG. 48B. PBMCs were also used to assess NK cell activity based on lysis of NK-sensitive Yac-1 target cells in a calcein release assay as shown in FIG. 48C.
On study day 4, the percentage of PBMC CD8^+ and NKp46^+ cells were assessed by flow cytometry (FIG. 49A). Nude mice were treated i.v. with IL15N72D/IL15Rα-Fc (0.2 mg/kg) or T2M2 (2 mg/kg) of study day 1. On day 4 and 7 post treatment, the percentage of PBMC NKp46^+ cells was assessed by flow cytometry (FIG. 49B). […]
Mice were i.v. injected on day 1 and 4 with the fusion proteins at an amount equivalent to a 2.5 μg dose of IL-15. On day 8, blood cells and splenocytes were collected, stained for CD8 T-cells and NK cells, and analyzed by flow cytometry. […]
C57BL/6 mice (male, 6 wks of age, Harlan, Indianapolis, IN) were injected intravenously with a single dose of IL-15N72D:IL-15RαSu/Fc fusion complex (Alt-803) at 1 mg/kg or human IL-15 wt at 0.28 mg/kg (molar equivalent dose), respectively, or PBS as a negative control. […] The stained cells were analyzed on a FACScan flow cytometer (BD Bioscience, San Jose, CA). […]

murine EG7-OVA lymphoma = test: EG7-OVA lymphoma primary subcutaneous tumor growth in C57BL/6 mice (Example 27); format: in vivo; conditions: ALT-803 0.415 or 0.83 mg/kg, rhIL-15 0.06 mg/kg, four i.v. injections
Description: To evaluate the effect of ALT-803 when administered via intravenous (i.v.) injection in multi-dose regimen on primary subcutaneous tumor growth of murine EG7-OVA lymphoma in C57BL/6 mice the following studies were carried out. Four treatment groups, ALT-803 (0.415 and 0.83 mg/kg), recombinant human interleukine-15 (rhIL-15, 0.06 mg/kg) and PBS (control), were examined in the study (Table 1). Female C57BL/6 mice (8-10 weeks old) were injected subcutaneously (s.c.) with EG7-OVA (1×10^6 cells in 100 μl PBS) on study day (SD) 0. PBS (n=5), rhIL-15 (n=5) or ALT-803 (n=5) were administered i.v. on SD 1, 4, 8, and 11 post EG7-OVA tumor cell injection. Tumors (width and length) were measured over the course of study. Tumor volume was the primary end point of the study.
Female C57BL/6 mice were injected s.c. with EG7-OVA (1×10^6 cells/mouse) on study day 0. […] During the study, mouse body weight and tumor width and length were measured and recorded.
The length (mm) and width (mm) of the tumors were measured and recorded. […]
Data were analyzed by ANOVA using GraphPad Prism Version 4.03. […] Tumor growth inhibition (TGI) was calculated using the following equation: TGI (%)=(Vcontrol−Vtreated)/Vcontrol×100, where Vcontrol is the mean tumor volume of mice from the PBS or rhIL-15 treatment control, and Vtreated is the mean tumor volume of mice receiving test article treatment.

[1] = tested on: human p53+ HLA-A2+ A375 melanoma cell line; conditions: vs PBS; for effect on s.c. A375 tumor xenografts: Example 17, i.v., equivalent molar doses
Description: A375 human melanoma tumor cells (1×10^6) were injected s.c. into nude mice (5-6/group). […] The mice were treated three times a week for three weeks starting on study day 11 (FIG. 50A). A375-tumor bearing nude mice were also treated i.v. with 4 mg/kg T2M as in FIG. 50A (FIG. 50B). A375 tumor bearing nude mice were i.v. with equivalent molar doses of IL-15 (0.2 mg/kg), T2M2 (2 mg/kg) or PBS (FIG. 50C). Tumors were measured every other day and tumor volumes (mean±SEM) were plotted.
To determine the therapeutic effects of the T2 protein, we examined antitumor activity in a primary tumor growth model with the human p53+ HLA-A2+A375 melanoma cell line in nude mice. Tumor cells were injected subcutaneously into nude mice and tumors were allowed to grow to 100 mm 3 before treatment began. […] The mice were treated every other day for one week (3 injections) followed by a 9 day rest period and then every other day for an additional week (3 injections). During the study, tumor growth was measured and the tumor volumes were plotted (FIG. 27).
The antitumor activity of these complexes was further examined in the subcutaneous A375 xenograft model in nude mice.

IL-15Rα = conditions: cited from earlier work
5T33P myeloma cells = test: 5T33P murine myeloma model; conditions: single i.v. ALT-803 0.2 mg/kg or molar equivalent IL-15, well-established tumors, four days after treatment
Description: BM cells were collected 4 days after study drug treatments. […] The plotted values represent the mean±SE; P values are presented. […] Female C57BL/6NHsd mice (n=5/group) were injected i.v. with murine 5T33P myeloma cells (1×10^7 cells/mouse) on day 0. […] Control mice were treated with PBS on day 4. Survival (or morbidity due to hind leg paralysis) was monitored as a study endpoint. […] Five treatment-naïve mice were also administered 5T33P cells (1×10^7) on day 93 as a control for tumor development.
Tumor-bearing mice were monitored daily for hind leg paralysis, signs of overt disease progression and mortality.
Levels of BM myeloma cells and hind leg paralysis or survival were assessed as study endpoints.
Control mice received PBS (0.2 mL).

32Dβ cells [2] = conditions: as disclosed in WO2008143794; cited from earlier work
32Dβ cells [3] = test: 32Dβ cell proliferation assay (WST-1), IL-15 biological activity; format: cell-based; conditions: hIL-15 wild-type domain, 48 h; read-out: half-maximal stimulation (EC50)
Description: The biological activity of the IL-15 domain of the T2 molecules was further characterized in proliferation assays using the cytokine-dependent 32Dβ cell line. […] Cell proliferation reagent WST-1 (Roche Applied Science) was added during the last 4 h of cell growth according to the manufacturer's procedures. Conversion of WST-1 to the colored formazan dye by metabolically active cells was determined through absorbance measurements at 440 nm.
Cell proliferation assays—Cell proliferation was measured as previously described (25). Briefly, 32Dβ cells (1×10^5 cells/well) were incubated with increasing concentrations of scTCR/hIL-15 or scTCR/hIL-15 muteins in the presence or absence of an equal molar concentration of scTCR/hIL-15RαSu for 48 h at 37° C. Cell proliferation reagent WST-1 (Roche Applied Science, Indianapolis, IN) was added during the last 4 h of cell growth according to the manufacturer's procedures. Conversion of WST-1 to the colored formazan dye by metabolically active cells was determined through absorbance measurements at 440 nm. The EC50 was determined with the dose-response curve generated from the experimental data by nonlinear regression variable slope curve-fitting with Prizm4 software (GraphPad Software, La Jolla, CA). […]

IL-15Rβγc receptors = target: T1, IL-15Rβγc receptors (UniProt P14784+P34902); test: IL-15Rβγc receptor binding of IL-15 variants and fusion complexes on 32Dβ cells (flow cytometry); conditions: 320 nM fusion protein complex
T1 construct: expressed in transfected cells; host or cells: 32Dβ cells
T1 sequence (P14784 27-551): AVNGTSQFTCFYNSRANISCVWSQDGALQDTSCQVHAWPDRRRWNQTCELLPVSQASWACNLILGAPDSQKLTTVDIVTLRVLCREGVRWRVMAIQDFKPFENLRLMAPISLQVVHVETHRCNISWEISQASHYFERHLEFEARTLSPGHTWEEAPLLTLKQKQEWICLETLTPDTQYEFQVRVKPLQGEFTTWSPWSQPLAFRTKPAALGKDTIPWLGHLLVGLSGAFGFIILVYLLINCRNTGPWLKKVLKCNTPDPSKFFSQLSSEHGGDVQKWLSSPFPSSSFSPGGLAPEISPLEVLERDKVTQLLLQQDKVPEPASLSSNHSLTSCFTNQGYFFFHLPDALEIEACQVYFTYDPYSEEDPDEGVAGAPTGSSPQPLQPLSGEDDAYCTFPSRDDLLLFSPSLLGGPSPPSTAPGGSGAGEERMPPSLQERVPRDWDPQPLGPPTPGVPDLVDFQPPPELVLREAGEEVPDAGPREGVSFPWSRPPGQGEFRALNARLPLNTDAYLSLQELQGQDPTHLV
T1 sequence (P34902 23-369): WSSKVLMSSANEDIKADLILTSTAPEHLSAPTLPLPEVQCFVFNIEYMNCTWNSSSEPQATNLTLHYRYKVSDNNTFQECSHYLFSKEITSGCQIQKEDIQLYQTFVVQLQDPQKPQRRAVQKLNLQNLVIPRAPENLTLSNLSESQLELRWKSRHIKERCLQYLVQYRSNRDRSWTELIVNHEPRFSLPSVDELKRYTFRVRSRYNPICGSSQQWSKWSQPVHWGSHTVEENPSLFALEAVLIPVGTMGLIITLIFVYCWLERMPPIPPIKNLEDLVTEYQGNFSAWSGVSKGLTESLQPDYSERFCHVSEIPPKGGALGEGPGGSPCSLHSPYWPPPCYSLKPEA
Description: (§1) The fusion protein complexes comprising IL-15 variants as described in the table immediately above were characterized for their ability to bind the TCR-specific antigen, p53 (aa264-272)/HLA-A2.1. To generate cells presenting p53 (aa264-272)/HLA-A2.1, HLA-A2.1-positive T2 cells (2×10^6/mL) were loaded with 20 μM p53 (aa264-272) peptide at 37° C. in the presence of 1×PLE (Altor Bioscience) for 2-3 hrs. T2 cells that were not incubated with peptide and 321313 cells expressing IL-2/15Rβγc serve as controls. […] These complexes were generated by incubating 160 nM of purified c264scTCRhuIL15 fusion protein and 160 nM of purified c264scTCRhuIL15Rα Sushi fusion protein at 4 C for 3 hours. Following staining, cells were washed once with washing buffer (PBS containing 0.5% BSA and 0.05% sodium azide) and stained with 0.5 μg of biotinylated mouse monoclonal anti-human TCR Cβ antibody (BF1) in 100 μL of washing buffer for 30 min at 4 C. Cells were washed once and stained with 0.5 μg of R-Phycoerythrin conjugated streptavidin in 100 μL of washing buffer for 30 min at 4 C. Cells were washed and resuspended for analysis by flow cytometry.
The binding of the proteins was in turn detected with biotinylated (BF1) 8A3.31 mAb for 15 min and SA-PE (5 μg/ml each) for 15 min. The stained cells were analyzed by flow cytometry as described above.

p53 (aa264-272)/HLA-A2.1 = test: Flow cytometry staining of p53 (aa264-272) peptide-loaded HLA-A2-positive T2 cells; format: binding, human; conditions: 320 nM dimeric complex; vs c264scTCR/huIL15+c264scTCR/huIL15RαSushi complex
Description: as §1, with “Cells were washed and resuspended for analysis by flow cytometry.” left out
For the OT1scTCR fusion protein complexes, murine lymphoma EL4 cells were pulsed with OVA peptide at 100 μg/ml and PLE at 37° C. for 6 h. […] The samples were washed two times and analyzed on a FACScan flow cytometer using CellQuest software (BD Biosciences, San Jose, CA). […]

TNF-α = TNF-α (Homo sapiens, UniProt P01375); conditions: cited from earlier work
Chain of TNF-α (P01375 77-233 limits assumed): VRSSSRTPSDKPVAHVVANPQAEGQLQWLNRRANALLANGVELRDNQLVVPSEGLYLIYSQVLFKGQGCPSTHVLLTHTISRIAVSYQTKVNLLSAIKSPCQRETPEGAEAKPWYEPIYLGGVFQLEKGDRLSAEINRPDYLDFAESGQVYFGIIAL

Chain of IL-15Rα (Q13261 31-95 limits assumed): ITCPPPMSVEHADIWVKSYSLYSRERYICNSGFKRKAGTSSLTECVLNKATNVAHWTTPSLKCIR

## IL-15: recombinant human wild-type IL-15
NK cells and CD8 T-cells; Example 17, single i.v. dose at molar equivalent of IL-15 1 mg/kg, day 4
  WBC counts, spleen weight and blood NK and CD8+ T cell populations: little or no effect
NK cells and CD8 T-cells; Example 22, single i.v. dose, complex 1 mg/kg or IL-15 wt 0.28 mg/kg, four days
  expansion of NK and CD8+ T cells in blood and spleen: no significant effect
Murine EG7-OVA lymphoma
  EG7-OVA tumor growth vs PBS: significantly inhibited
[1]
  effect on s.c. A375 tumor xenografts: no effect
IL-15Rα; in solution, Bouchaud et al. 2008, read-out: Kd of complex of soluble IL-15RαSu and IL-15
  pKd: 10.00
IL-15Rα; read-out: Equilibrium dissociation constant (KD) of hIL-15 with hIL-15Rα
  pKd: ~11.00
IL-15Rα; read-out: affinity of IL-15Rα for hIL-15
  pKd: 10.42
5T33P myeloma cells
  reduction in BM myeloma cells compared to PBS controls: 53%

## Mutant 6: human IL-15 variant, N72D
32Dβ cells [2]
  increase of IL-15 biological activity by the substitution: 5 to 10 fold

## c264scTCR/huIL15: c264scTCR fused to the N-terminus of hIL-15
32Dβ cells [3]
  pEC50: ~9.52
[1]
  effect on s.c. A375 tumor xenografts: no effect

## c264scTCR/huIL15D8A+c264scTCR/huIL15Rα Sushi complex: dimeric fusion protein complex with IL-15 D8A variant
IL-15Rβγc receptors
  binding to the IL-15Rβγc receptors present on the 32Dβ cells: do not show binding activity
p53 (aa264-272)/HLA-A2.1
  specific staining of p53 peptide-loaded T2 cells: equivalent activity

## c264scTCR/huIL15D8N+c264scTCR/huIL15RαSushi complex: dimeric fusion protein complex with IL-15 D8N variant
IL-15Rβγc receptors
  binding to the IL-15Rβγc receptors present on the 32Dβ cells: do not show binding activity
p53 (aa264-272)/HLA-A2.1
  specific staining of p53 peptide-loaded T2 cells: equivalent activity

## c264scTCR/huIgG1: p53 (aa 264-272) single-chain TCR fused to human IgG1
[1]; Example 10, i.v. 1.6 mg/kg T2 or c264scTCR/huIL2, 3 mg/kg 264scTCR/huIgG1
  A375 tumor growth: inhibited

## etanercept
TNF-α
  potency at inhibiting TNF-α activity relative to monomeric sTNFR: up to 1,000 times
  serum half-life relative to the monomeric form: five-fold longer serum half-life
